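96-well plates; 48 h exposure; 5 concentrations. Endpoints by linear interpolation between flanking doses. Not reached: highest tested concentration assigned. GI50 marks 50% less growth. The concentration for full growth arrest is given as TGI.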
How the values were obtained:
Test in all cases: NCI anticancer screen, dose series, 48 h
NCI-H460 lung = tested on: NCI-H460 lung
T-47D breast = tested on: T-47D breast
UO-31 renal = tested on: UO-31 renal
K-562 leukemia = tested on: K-562 leukemia
PC-3 prostate = tested on: PC-3 prostate
SK-MEL-5 melanoma = tested on: SK-MEL-5 melanoma
KM12 colon = tested on: KM12 colon
U251 CNS = tested on: U251 CNS
SW-620 colon = tested on: SW-620 colon
LOX IMVI melanoma = tested on: LOX IMVI melanoma

| Compound | GI50 (NCI-H460 lung) | TGI (NCI-H460 lung) | GI50 (T-47D breast) | TGI (T-47D breast) | GI50 (UO-31 renal) | TGI (UO-31 renal) | GI50 (K-562 leukemia) | TGI (K-562 leukemia) | GI50 (PC-3 prostate) | TGI (PC-3 prostate) | GI50 (SK-MEL-5 melanoma) | TGI (SK-MEL-5 melanoma) | GI50 (KM12 colon) | TGI (KM12 colon) | GI50 (U251 CNS) | TGI (U251 CNS) | GI50 (SW-620 colon) | TGI (SW-620 colon) | GI50 (LOX IMVI melanoma) | TGI (LOX IMVI melanoma) |
| --- | --- | --- | --- | --- | --- | --- | --- | --- | --- | --- | --- | --- | --- | --- | --- | --- | --- | --- | --- | --- |
| COc1ccc(COc2ccc(Cc3cnc(N)nc3N)cc2OC)cc1 | > 22.1 µM | > 25 µM | 7.08 µM | > 25 µM | 11.9 µM | > 25 µM | 8.19 µM | > 25 µM | > 22.4 µM | > 25 µM | 3.43 µM | 7.66 µM | 1.03 µM | > 25 µM | 21.4 µM | > 25 µM | > 25 µM | > 25 µM | > 25 µM | > 25 µM |
| C#Cc1cccc(NC(=O)C2CCCCN2C(=O)CCl)c1 (stereo not drawn) | 23.9 µM | > 82.5 µM | 16 µM | > 82.5 µM | 13.6 µM | 25.7 µM | 15.3 µM | > 82.5 µM | 32.9 µM | > 82.5 µM | 9.54 µM | 41.2 µM | 37.1 µM | > 82.5 µM | 15.1 µM | 35.8 µM | 12.1 µM | 31.5 µM | 7.6 µM | 18.6 µM |
| Cc1cc(C2CC(O)C(CO)O2)c(Br)cc1Br (stereo not drawn) | > 100 µM | > 100 µM | > 100 µM | > 100 µM | > 100 µM | > 100 µM | > 100 µM | > 100 µM | > 100 µM | > 100 µM | > 100 µM | > 100 µM | > 100 µM | > 100 µM | > 100 µM | > 100 µM | > 100 µM | > 100 µM | 80.2 µM | > 100 µM |
| Nc1nc(N)c2c(n1)NC(c1ccc(Cl)cc1)C1CCc3ccccc3C1=N2 (stereo not drawn) | 3.77 µM | 12.9 µM | 4.09 µM | 17.8 µM | 3.63 µM | 17.4 µM | – | – | 2.86 µM | 14.5 µM | 0.497 µM | 2.02 µM | 8.48 µM | 20.8 µM | 3.81 µM | 16.3 µM | 8.23 µM | 22.6 µM | 3.53 µM | 16.2 µM |
| COc1cc(-c2cc(-c3ccc(Nc4nc(Nc5ccc(Cl)cc5)nc(Nc5ccc(Cl)cc5)n4)cc3)no2)cc(OC)c1OC | 6.79 µM | 46.4 µM | 3.15 µM | > 100 µM | 6 µM | > 100 µM | 1.98 µM | 19.4 µM | 0.565 µM | 9.19 µM | 4.47 µM | 58.1 µM | 14.2 µM | > 100 µM | 11.4 µM | > 100 µM | 19.9 µM | > 100 µM | 11.4 µM | > 100 µM |
| C=C1[C@H](O)C[C@@H](C(C)C(O)CC=C(C)C)[C@@H](O)[C@@H]2C(C)=CC[C@@H]12 (stereo partly drawn) | > 100 µM | > 100 µM | > 100 µM | > 100 µM | > 100 µM | > 100 µM | 53 µM | > 100 µM | > 100 µM | > 100 µM | > 100 µM | > 100 µM | > 100 µM | > 100 µM | > 100 µM | > 100 µM | > 100 µM | > 100 µM | > 100 µM | > 100 µM |
| OCC1OC(n2cnc3cc(Cl)c(Cl)cc32)C(O)C1O (stereo not drawn) | 30 µM | > 100 µM | 26.1 µM | > 71.9 µM | 15.8 µM | 40 µM | 44.8 µM | > 100 µM | 44.5 µM | > 100 µM | 18.5 µM | 37.6 µM | 28.3 µM | > 100 µM | 13.8 µM | 37.5 µM | 30.3 µM | > 76.7 µM | 12.1 µM | 29 µM |
| CC(=O)Nc1ccc2c(c1)[nH]c(=O)c1cc(NC(C)=O)ccc12 | > 100 µM | > 100 µM | > 100 µM | > 100 µM | > 100 µM | > 100 µM | 59.5 µM | > 100 µM | > 100 µM | > 100 µM | > 100 µM | > 100 µM | > 100 µM | > 100 µM | 52 µM | > 100 µM | > 100 µM | > 100 µM | > 100 µM | > 100 µM |
| Cc1c(-c2c(F)cc(C(N)=O)c3[nH]c4c(c23)CC[C@H](C(C)(C)O)C4)cccc1-n1c(=O)c2cccc(F)c2n(C)c1=O | 3.43 µM | > 100 µM | 3.39 µM | > 100 µM | 1.01 µM | 5.59 µM | 3.61 µM | > 100 µM | 2.67 µM | > 100 µM | 3.83 µM | 16.2 µM | 0.399 µM | > 100 µM | 6.07 µM | > 100 µM | 2.44 µM | > 100 µM | 3.13 µM | > 100 µM |
| OCC1OC(N2CCN(C3OC(CO)C(O)C(O)C3O)CC2)C(O)C(O)C1O (stereo not drawn) | – | > 100 µM | – | > 100 µM | – | > 100 µM | – | > 100 µM | – | > 100 µM | – | > 100 µM | – | > 100 µM | – | > 100 µM | – | > 100 µM | – | > 100 µM |
| Nc1[nH]c(=S)[nH]c(=O)c1N=Nc1c(Br)cc(S(N)(=O)=O)cc1Br | – | > 100 µM | – | > 100 µM | – | > 100 µM | – | > 100 µM | – | > 100 µM | – | > 100 µM | – | > 100 µM | – | > 100 µM | – | > 100 µM | – | > 100 µM |
| CCN(CC(O)COc1ccc2c(c1)[n+]([O-])nc(N)[n+]2[O-])C(C)=O (stereo not drawn) | – | > 100 µM | – | > 100 µM | – | > 100 µM | – | > 100 µM | – | > 100 µM | – | > 100 µM | – | > 100 µM | – | > 100 µM | – | > 100 µM | – | > 100 µM |
| Nc1cc2c3ccccc3ccc2c2ccccc12 | 7.63 µM | > 100 µM | > 38.1 µM | > 100 µM | > 100 µM | > 100 µM | 19.3 µM | > 100 µM | 7.78 µM | > 100 µM | 16.7 µM | > 100 µM | > 100 µM | > 100 µM | 21.4 µM | > 100 µM | > 100 µM | > 100 µM | 9.13 µM | > 100 µM |

Reference: PubChem BioAssay (NCI)
